Measured values published in patent US8080497B2, “Method of controlling the aquatic weed Hydrilla verticillata” (BASF SE, priority 2005, dated 2011).

System: Hydrilla verticillata
Experiment: Greenhouse container test, static exposure of Hydrilla verticillata in water columns
Type: in vivo
Details: for Hydrilla Shoot Length: static exposure, 11 WAT, control 30.4 cm
Protocol: To begin the experiment, PVC cylinders were filled and maintained with a volume of 4000 ml of dechlorinated water that was maintained at room temperature (24° C.). To each cylinder, an established Hydrilla verticillata plant (potted in sand mixture) was transferred into the water column. Hydrilla plants were selected for uniformity and length of shoot growth (approx 15 cm). Plants were allowed to equilibrate in the columns for 24 hrs prior to herbicide treatment. Experimental treatments included an untreated control, and imazamox at 50 and 100 ppb of actual acid equivalent of herbicide. Treatments were applied to water columns by the use of a pipette. Amount of herbicide applied was based on the total volume of the cylinders (4000 ml). After initial herbicide treatment, the water columns were gently stirred to ensure uniform distribution. Treatments were arranged as a completely random design with 3 replications. Each cylinder was considered the experimental unit. Greenhouse conditions were maintained at 24/18° C. (day/night) cycle for the duration of the experiment. Natural day length was supplemented with halogen lighting to provide a 14 h photoperiod. Water level in the cylinders was periodically checked and maintained at the 4000 ml level for the duration of the study. After 11 weeks of exposure, Hydrilla shoot lengths were measured to ascertain herbicide effects.

Compound: COCc1cnc(C2=NC(C)(C(C)C)C(=O)N2)c(C(=O)O)c1 (racemic) [Imazamox, (RS)-2-(4-isopropyl-4-methyl-5-oxo-2-imidazolin-2-yl)-5-methoxymethylnicotinic acid]
- effect on the growth of Hydrilla (after the exposure period (11 weeks)): significant effect
- visual symptomology (after the exposure period (11 weeks), intensity tended to be rate responsive): reduction in plant vigour, chlorosis and reduction of internodal length
- Hydrilla Shoot Length (rate 50 ppb): 18.5 cm
- Hydrilla Shoot Length (rate 100 ppb): 12.3 cm
